Test results as given in ChEMBL document CHEMBL1158398, “New cyclopentane derivatives as inhibitors of steroid metabolizing enzymes AKR1C1 and AKR1C3” (Eur J Med Chem, 2009).
Active and inactive are the calls of the source. No cut-off for these calls is given here.

Tests used:
[1] = target: T1, Aldo-keto reductase family 1 member C1 (Homo sapiens) (UniProt Q04828); assay: Inhibition of human recombinant GST-tagged AKR1C1 expressed in Escherichia coli BL21 at 100 uM
T1 sequence (whole entry): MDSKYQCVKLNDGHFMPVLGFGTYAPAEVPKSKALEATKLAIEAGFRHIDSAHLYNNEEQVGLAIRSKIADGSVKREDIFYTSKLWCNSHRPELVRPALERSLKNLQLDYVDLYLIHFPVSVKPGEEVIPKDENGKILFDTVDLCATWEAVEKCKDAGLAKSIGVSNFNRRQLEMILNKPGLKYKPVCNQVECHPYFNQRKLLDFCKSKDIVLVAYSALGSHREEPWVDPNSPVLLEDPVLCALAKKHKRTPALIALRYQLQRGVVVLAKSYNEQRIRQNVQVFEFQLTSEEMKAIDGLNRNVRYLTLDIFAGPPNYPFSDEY

[2] = target: T2, Aldo-keto reductase family 1 member C3 (Homo sapiens) (UniProt P42330); assay: Inhibition of human recombinant GST-tagged AKR1C3 expressed in Escherichia coli BL21 at 100 uM
T2 sequence (whole entry): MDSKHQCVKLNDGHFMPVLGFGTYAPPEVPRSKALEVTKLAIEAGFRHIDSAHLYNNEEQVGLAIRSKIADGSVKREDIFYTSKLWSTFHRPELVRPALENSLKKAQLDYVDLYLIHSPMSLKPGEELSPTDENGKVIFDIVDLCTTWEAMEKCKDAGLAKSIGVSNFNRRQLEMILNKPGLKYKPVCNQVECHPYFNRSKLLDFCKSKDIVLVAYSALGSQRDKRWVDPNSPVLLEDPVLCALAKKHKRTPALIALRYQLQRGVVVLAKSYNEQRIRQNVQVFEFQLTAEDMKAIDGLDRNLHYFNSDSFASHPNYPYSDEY

[3] = target: T3, Aldo-keto reductase family 1 member C1 (Homo sapiens, UniProt Q04828); assay: Inhibition of human recombinant GST-tagged AKR1C1 expressed in Escherichia coli BL21
T3 sequence (Q04828 whole entry): T1 sequence (whole entry)

[4] = target: T4, Aldo-keto reductase family 1 member C3 (Homo sapiens, UniProt P42330); assay: Inhibition of human recombinant GST-tagged AKR1C3 expressed in Escherichia coli BL21
T4 sequence (P42330 whole entry): T2 sequence (whole entry)

[5] = target: T1, Aldo-keto reductase family 1 member C1 (Homo sapiens); assay: Inhibition of human recombinant GST-tagged AKR1C1 expressed in Escherichia coli BL21 at 50 uM
[6] = target: T2, Aldo-keto reductase family 1 member C3 (Homo sapiens); assay: Inhibition of human recombinant GST-tagged AKR1C3 expressed in Escherichia coli BL21 at 50 uM
[7] = Solubility of the compound; type: physicochemical
[8] = target: T1, Aldo-keto reductase family 1 member C1 (Homo sapiens); assay: Competitive inhibition of human recombinant GST-tagged AKR1C1 expressed in Escherichia coli BL21 at 17.4 uM by Lineweaver-Burke plot analysis
[9] = target: T1, Aldo-keto reductase family 1 member C1 (Homo sapiens); assay: Competitive inhibition of human recombinant GST-tagged AKR1C1 expressed in Escherichia coli BL21 at 36.2 uM by Lineweaver-Burke plot analysis
[10] = target: T1, Aldo-keto reductase family 1 member C1 (Homo sapiens); assay: Competitive inhibition of human recombinant GST-tagged AKR1C1 expressed in Escherichia coli BL21 at 72.5 uM by Lineweaver-Burke plot analysis

| inhibition [1] [%] | inhibition [2] | Compound | further results |
| --- | --- | --- | --- |
| 20.3 | 9.2% | Cc1ccc(S(=O)(=O)N[C@@H]2CCC[C@H]2Br)cc1 (relative stereo) | – |
| 77.8 | 88.8% | O=C1CCC/C1=C\c1ccc(Cl)cc1 | IC50 [3]: 35 µM; Ki [3]: 17.2 µM; IC50 [4]: 36.7 µM; Ki [4]: 33.4 µM; Activity [8]: Active; Activity [9]: Active; Activity [10]: Active |
| 13.8 | inactive | O[C@@H]1CCC[C@H]1Cc1ccccc1 (relative stereo) | – |
| 14.7 | inactive | O[C@@H]1CCC[C@H]1Nc1ccccc1 (relative stereo) | – |
| 15.9 | inactive | Cc1ccc(S(=O)(=O)N[C@@H]2CCC[C@H]2C#N)cc1 (relative stereo) | – |

The remaining lines, values behind:

| Compound | inhibition [1] [%] | inhibition [2] | further results |
| --- | --- | --- | --- |
| O=C(O)C1(c2ccccc2)CCCC1 | 53.5 | 5.8% | IC50 [3]: 72.9 µM; Ki [3]: 35.8 µM |
| COC1CCC/C1=C\c1ccc(Cl)cc1 (stereo unspecified) | 40.1 | 87.4% | IC50 [4]: 17.8 µM; Ki [4]: 16.2 µM |
| Cc1ccc(S(=O)(=O)N[C@@H]2CCC[C@H]2C(N)=O)cc1 (relative stereo) | 12.9 | inactive | – |
| Cc1ccc(S(=O)(=O)N[C@@H]2CCC[C@H]2C(=O)O)cc1 (relative stereo) | 26.1 | inactive | – |
| OC1C(Cc2ccccc2)CCC1Cc1ccccc1 (stereo unspecified) | – | – | inhibition [5]: 11.5%; inhibition [6]: 46.6%; solubility [7]: Insoluble |
| CCOC1CCC/C1=C\c1ccc(Cl)cc1 (stereo unspecified) | 52.9 | 83.9% | IC50 [3]: 62.1 µM; Ki [3]: 30.5 µM; IC50 [4]: 22.5 µM; Ki [4]: 20.5 µM |
| OC1CCCC1(Cc1ccccc1)Cc1ccccc1 (stereo unspecified) | – | – | inhibition [5]: 15.9%; inhibition [6]: 67.3%; solubility [7]: Insoluble |
| Cc1ccc(S(=O)(=O)N2C3CCCC32)cc1 (stereo unspecified) | 2.1 | 2.7% | – |
| O=C(O)C1CCC(c2ccccc2)C1 (stereo unspecified) | 55.4 | 52.7% | IC50 [3]: 98.6 µM; Ki [3]: 48.5 µM; IC50 [4]: 76.6 µM; Ki [4]: 69.6 µM |
| O[C@H]1CCC[C@H]1Cc1ccccc1 (relative stereo) | 9.7 | inactive | – |
